≈ marks a conversion by molar mass, not a printed value.
How the values were obtained:
Assay type in all cases: functional
Pichia kudriavzevii = test: Antifungal activity against Candida krusei 4996 assessed as inhibition of fungal growth incubated for 48 hrs by CLSI based broth microdilution assay
Candida albicans [1] = test: Antifungal activity against Candida albicans 10231 assessed as inhibition of fungal growth incubated for 48 hrs by CLSI based broth microdilution assay
Candida tropicalis = test: Antifungal activity against Candida tropicalis 8915 assessed as inhibition of fungal growth incubated for 48 hrs by CLSI based broth microdilution assay
Candida albicans [2] = test: Antifungal activity against Candida albicans SC5314 assessed as inhibition of fungal growth incubated for 48 hrs by CLSI based broth microdilution assay
Candida parapsilosis = test: Antifungal activity against Candida parapsilosis 22019 assessed as inhibition of fungal growth incubated for 48 hrs by CLSI based broth microdilution assay; settings: Lodderomyces parapsilosis
Cryptococcus neoformans = test: Antifungal activity against Cryptococcus neoformans 32609 assessed as inhibition of fungal growth incubated for 72 hrs by CLSI based broth microdilution assay
Nakaseomyces glabratus = test: Antifungal activity against Candida glabrata 537 assessed as inhibition of fungal growth incubated for 48 hrs by CLSI based broth microdilution assay
[Candida] auris [3] = Antifungal activity against fluconazole-resistant Candida auris 919 assessed as inhibition of fungal growth incubated for 48 hrs by CLSI based broth microdilution assay; settings: Candidozyma auris
[Candida] auris [4] = Antifungal activity against fluconazole-resistant Candida auris 891 assessed as inhibition of fungal growth incubated for 48 hrs by CLSI based broth microdilution assay; settings: Candidozyma auris
Candida albicans [5] = test: Antifungal activity against fluconazole-resistant Candida albicans 901 assessed as inhibition of fungal growth incubated for 48 hrs by CLSI based broth microdilution assay
Candida albicans [6] = test: Antifungal activity against fluconazole-resistant Candida albicans 904 assessed as inhibition of fungal growth incubated for 48 hrs by CLSI based broth microdilution assay
[Candida] auris [7] = Antifungal activity against fluconazole-resistant Candida auris 918 assessed as inhibition of fungal growth incubated for 48 hrs by CLSI based broth microdilution assay; settings: Candidozyma auris

Row | SMILES | MIC (Pichia kudriavzevii) [µg/mL] | MIC (Candida albicans [1]) [µg/mL] | MIC (Candida tropicalis) [µg/mL] | MIC (Candida albicans [2]) [µg/mL] | MIC (Candida parapsilosis) [µg/mL] | MIC (Cryptococcus neoformans) [µg/mL] | MIC (Nakaseomyces glabratus) [µg/mL] | MIC ([Candida] auris [3]) [µg/mL] | MIC ([Candida] auris [4]) [µg/mL] | MIC (Candida albicans [5]) [µg/mL] | MIC (Candida albicans [6]) [µg/mL] | MIC ([Candida] auris [7]) [µg/mL]
1 | C[C@@H](OCc1ccn(Cc2c(F)cc(F)cc2F)n1)[C@](O)(Cn1cncn1)c1ccc(F)cc1F | 8 (≈ 16.2 µM) | 0.5 (≈ 1.01 µM) | 64 (≈ 130 µM) | 0.25 (≈ 0.507 µM) | 0.5 (≈ 1.01 µM) | 0.5 (≈ 1.01 µM) | 0.5 (≈ 1.01 µM) |  |  |  |  | 
2 | C[C@@H](OCc1ccn(Cc2ccccc2F)n1)[C@](O)(Cn1cncn1)c1ccc(F)cc1F | 8 (≈ 17.5 µM) | 0.25 (≈ 0.547 µM) | ~64 (≈ 140 µM) | ≤ 0.125 | 0.5 (≈ 1.09 µM) | 0.25 (≈ 0.547 µM) | 0.25 (≈ 0.547 µM) |  |  |  |  | 
3 | C[C@@H](OCc1ccn(Cc2c(Cl)cccc2Cl)n1)[C@](O)(Cn1cncn1)c1ccc(F)cc1F | 8 (≈ 15.7 µM) | 0.5 (≈ 0.984 µM) | 32 (≈ 62.9 µM) | 0.25 (≈ 0.492 µM) | 1 (≈ 1.97 µM) | 0.25 (≈ 0.492 µM) | 0.5 (≈ 0.984 µM) |  |  |  |  | 
4 | C[C@@H](OCc1ccn(Cc2cc(F)ccc2F)n1)[C@](O)(Cn1cncn1)c1ccc(F)cc1F | 4 (≈ 8.41 µM) | 0.25 (≈ 0.526 µM) | 0.25 (≈ 0.526 µM) | ≤ 0.125 | 0.5 (≈ 1.05 µM) | 0.5 (≈ 1.05 µM) | 0.25 (≈ 0.526 µM) | 32 (≈ 67.3 µM) | 16 (≈ 33.7 µM) | > 64 | > 64 | 32 (≈ 67.3 µM)
5 | C[C@@H](OCc1ccn(Cc2ccc(C#N)cc2)n1)[C@](O)(Cn1cncn1)c1ccc(F)cc1F | 8 (≈ 17.2 µM) | 0.25 (≈ 0.538 µM) | 0.5 (≈ 1.08 µM) | ≤ 0.125 | 0.5 (≈ 1.08 µM) | 1 (≈ 2.15 µM) | 1 (≈ 2.15 µM) |  |  |  |  | 
6 | Cc1cccc(Cn2ccc(CO[C@H](C)[C@](O)(Cn3cncn3)c3ccc(F)cc3F)n2)c1 | 8 (≈ 17.6 µM) | 0.25 (≈ 0.551 µM) | > 64 | ≤ 0.125 | 0.5 (≈ 1.1 µM) | 0.5 (≈ 1.1 µM) | 4 (≈ 8.82 µM) |  |  |  |  | 
7 | C[C@@H](OCc1ccn(Cc2cccc(Cl)c2Cl)n1)[C@](O)(Cn1cncn1)c1ccc(F)cc1F | 8 (≈ 15.7 µM) | ≤ 0.125 | 16 (≈ 31.5 µM) | 0.25 (≈ 0.492 µM) | 0.25 (≈ 0.492 µM) | 0.5 (≈ 0.984 µM) | 0.5 (≈ 0.984 µM) |  |  |  |  | 
8 | C[C@@H](OCc1ccn(Cc2ccc([N+](=O)[O-])cc2)n1)[C@](O)(Cn1cncn1)c1ccc(F)cc1F | 4 (≈ 8.26 µM) | ≤ 0.125 | 0.5 (≈ 1.03 µM) | ≤ 0.125 | 0.25 (≈ 0.516 µM) | 0.5 (≈ 1.03 µM) | ≤ 0.125 |  |  |  |  | 

Continued, in another order:

Row | MIC (Pichia kudriavzevii) [µg/mL] | MIC (Candida albicans [1]) [µg/mL] | MIC (Candida tropicalis) [µg/mL] | MIC (Candida albicans [2]) [µg/mL] | MIC (Candida parapsilosis) [µg/mL] | MIC (Cryptococcus neoformans) [µg/mL] | MIC (Nakaseomyces glabratus) [µg/mL] | SMILES | MIC ([Candida] auris [3]) [µg/mL] | MIC ([Candida] auris [4]) [µg/mL] | MIC (Candida albicans [5]) [µg/mL] | MIC (Candida albicans [6]) [µg/mL] | MIC ([Candida] auris [7]) [µg/mL]
9 | 4 (≈ 7.87 µM) | 0.5 (≈ 0.984 µM) | 32 (≈ 62.9 µM) | 0.25 (≈ 0.492 µM) | 1 (≈ 1.97 µM) | 0.25 (≈ 0.492 µM) | 0.5 (≈ 0.984 µM) | C[C@@H](OCc1ccn(Cc2cc(Cl)ccc2Cl)n1)[C@](O)(Cn1cncn1)c1ccc(F)cc1F |  |  |  |  | 
10 | 4 (≈ 8.44 µM) | ≤ 0.125 | 0.25 (≈ 0.528 µM) | ≤ 0.125 | 0.5 (≈ 1.06 µM) | 0.5 (≈ 1.06 µM) | 0.5 (≈ 1.06 µM) | C[C@@H](OCc1ccn(Cc2cccc(Cl)c2)n1)[C@](O)(Cn1cncn1)c1ccc(F)cc1F |  |  |  |  | 
11 | 4 (≈ 8.13 µM) | 0.25 (≈ 0.508 µM) | 8 (≈ 16.3 µM) | ≤ 0.125 | 1 (≈ 2.03 µM) | 0.25 (≈ 0.508 µM) | 1 (≈ 2.03 µM) | C[C@@H](OCc1ccn(Cc2ccc(F)cc2Cl)n1)[C@](O)(Cn1cncn1)c1ccc(F)cc1F |  |  |  |  | 
12 | 4 (≈ 7.88 µM) | ≤ 0.125 | 0.5 (≈ 0.985 µM) | 0.25 (≈ 0.493 µM) | 0.5 (≈ 0.985 µM) | 0.5 (≈ 0.985 µM) | 1 (≈ 1.97 µM) | C[C@@H](OCc1ccn(Cc2ccc(C(F)(F)F)cc2)n1)[C@](O)(Cn1cncn1)c1ccc(F)cc1F |  |  |  |  | 
13 | 2 (≈ 4.41 µM) | 0.25 (≈ 0.551 µM) | 16 (≈ 35.3 µM) | ≤ 0.125 | 0.25 (≈ 0.551 µM) | 0.5 (≈ 1.1 µM) | 2 (≈ 4.41 µM) | Cc1ccc(Cn2ccc(CO[C@H](C)[C@](O)(Cn3cncn3)c3ccc(F)cc3F)n2)cc1 |  |  |  |  | 

From ChEMBL document CHEMBL5579851, “Synthesis and antifungal evaluation of novel triazole derivatives bearing a pyrazole-methoxyl moiety” (Eur J Med Chem, 2024)
